Experimental data as given in patent publication US7744920B2, “Use of liposomal glucocorticoids for treating inflammatory states” (Hadasit Medical Research Services & Development Limited, priority 2004, dated 2010).
Values joined by “and” are separate entries in the source; they are usually repeats but may differ in a detail not shown here. Identical values can stand only once.

Legend:
Adjuvant Arthritis (AA) [1] = assay: Effect of SSL-MPS on AA at peak of disease; assay type: in vivo, Lewis rats; conditions: for AA score after the second injection at day 23: SSL-MPS and free-MPS 10 mg/kg BW on days 19, 23, Remicade 5 mg/kg on day 19; for clinical score immediately after the first injection: day 19, SSL-MPS and free-MPS 10 mg/kg BW, Remicade 5 mg/kg
[2] = Stability of liposomal formulation upon storage at 4° C. (gel exclusion chromatography); assay type: physicochemical; conditions: encapsulated in liposome, storage at 4° C. for 14 months
Description: The level of MPS released from SSL-MPS was determined by first separating the liposomes from free MPS using gel exclusion chromatography on Sepharose cross-linked CL-4B column using. Liposomes were eluted at the void volume and the free MPS at the later eluted fractions (FIG. 3A-3B). Stability upon storage at 4° C. and kinetic of release at 37° C. in 80% plasma was determined by gel exclusion chromatography described above. Then the different column fractions were analyzed as described above, for MPS, phospholipids and Ca in the void volume fraction.

[3] = State of aggregation (turbidity) of MPS as function of pH; assay type: physicochemical
Description: Aggregation of MPS was determined from the change in turbidity measured as intensity of light scattered at 90° to excitation beam using a spectrofluormeter under conditions that MPS lack absorbance (excitation and emission at the same wavelength Ex=600 nm Em=600 nm). There is a large increase in the light scattered by MPS solution/dispersion due to formation of aggregates.
The intensity of scattered light (at 90° to the excitation), also defined as turbidity is proportional to concentration and to the size of the aggregates. [Zuidam, N. J. and Barenholz, Y., Biochim. Biophys. Acta 1368:115-128 (1998)]. The state of aggregation of MPS was tested in the following manner: To quartz cuvette MPS (2 ml) at concentration of ˜6.5mg/ml MPS was added. The solution was tittered with HCl (1.756 M) and light scattering using excitation and emission at (both at 600 nm with attenuation of 1%) and pH of the solution was monitored.

Adjuvant Arthritis (AA) [4] = assay: Treatment of Adjuvant Arthritis (AA), injections from day 10 after induction; assay type: in vivo, Lewis rats; conditions: 2 i.v. injections on days 10 and 14, 5 then 10 mg/kg BW (FIG. 7A)
[5] = Partition coefficient (logD) by shake flask; assay type: physicochemical; conditions: FIG. 1B
Description: Partition coefficient (logD) of some GC derivatives (which are amphipathic weak acids) was determined by the ‘shake flask’ as described [Samuni, A. M. and Barenholz, Y., Free Radicals Biol. Med. 22:1165-1174 (1997)].

[6] = Precipitation of MPS in calcium acetate solution; assay type: physicochemical; conditions: 600 mOsm Ca-acetate, 63° C, 5 mg/ml, 40 minutes
Description: To 600 mOsm Ca-acetate solution at 63° C and at different pH points MPS was added at final concentration of 5 mg/ml, then mixed solution was incubated for 40 minutes after which the solution was centrifuged and the supernatant was analyzed using […].

[7] = Description: Surface tension was measured using μtrouge S (Kibron Inc., Helsinki Finland). A solution containing GC derivative (300 μL) was placed in the well after calibration and zeroing of the sensor using pure water and air. The measurement was performed at 26° C.
[8] = Loading efficiency of MPS into liposomes; assay type: physicochemical; conditions: HSPC:Chol:2000PEG-DSPE liposomes
Description: A stock solution of methylprednisolone hemisuccinate sodium salt (MPS, the GC derivative) was dissolved in 5% dextrose (pH 7.2) to a concentration of ˜9 mg/ml and added to the preformed SSL dispersion after the calcium acetate gradient was established. MPS concentration was ˜9 mg/ml and phospholipid ˜32 mM phosphate.
Loading was achieved by incubation of the components above for the desired time at 62° C. (above matrix lipid Tm). Liposomes were then cooled to 4° C. and dialyzed against 5% dextrose at 4° C. to remove acetate released during loading and to remove unloaded drug or alternatively unloaded drug was removed by the ion exchanger Dowex 1×400 mesh (Cl^− form).
Loading efficiency is the ratio between MPS/phospholipid concentrations after and before loading. The quantification of MPS was done in an HPLC apparatus as described by Anderson, and Taphouse 1981 [Anderson B. D. and Taphouse. V. J Pharm Sci, 70:181-6 (1981)], quantification of phospholipid was done by modified Bartlet procedure [Shmeeda, H., et al. In: Methods in Enzymology “Liposomes”, (Düzgünes, N., ed.), 367:272-292 (2003)].

[9] = liposomal formulation, after 24 hours, ex vivo; cited from earlier work
[10] = cited from earlier work

REMICADE: positive control, Remicade 5 mg/kg (on day 19)
AA score after the second injection at day 23 (Adjuvant Arthritis (AA) [1]): minimal decline
clinical score immediately after the first injection (Adjuvant Arthritis (AA) [1]): very slow decline

C[C@H]1C[C@@H]2[C@H]([C@@H](O)C[C@@]3(C)[C@H]2CC[C@]3(O)C(=O)COC(=O)CCC(=O)O)[C@@]2(C)C=CC(=O)C=C12 [Methylprednisolone hemisuccinate]
reduction in the GC derivative from initial concentration [2]: less than 20%

C[C@H]1C[C@@H]2[C@H]([C@@H](O)C[C@@]3(C)[C@H]2CC[C@]3(O)C(=O)COC(=O)CCC(=O)[O-])[C@@]2(C)C=CC(=O)C=C12.[Na+] [MPS, methylprednisolone sodium hemisuccinate]
state of aggregation (turbidity) ([3]; acidic pH): aggregates
state of aggregation (turbidity) ([3]; pH 7.2): non-aggregated water soluble
effect on AA (Adjuvant Arthritis (AA) [4]): neither the free MPS nor the empty liposome had any effect on AA
partition coefficient at different pH points [5]: amphipathic substance
% MPS precipitated ([6]; pH 4.5): 97% and 96.6%
% MPS precipitated ([6]; pH 6.2): 42.8%
% MPS precipitated ([6]; pH 6.8): 44.1%
AA score after the second injection at day 23 (Adjuvant Arthritis (AA) [1]): minimal decline
clinical score immediately after the first injection (Adjuvant Arthritis (AA) [1]): very slow decline
CAC (critical association/aggregation concentration) ([7]; 26° C.): ~5 mM
surface activity ([7]; concentrations 0.785-30 mM): surface active at all concentrations used
% Encapsulation ([8]; batch 04 May 2005, after dialysis): 93.2%
% Encapsulation ([8]; batch 06 Apr. 2005, after dialysis): 96.6%
% Encapsulation ([8]; batch 18 Jul. 2004, after dialysis): 99.1%

triamcinolone acetonide phosphate
acidic corticosteroid retained by the liposome [9]: more than 75%
pKa [10]: below 2
